Data as given in the OPERA property sets (Mansouri et al. 2018).

Row | logP | Compound
1 | 1.04 | O=C(O)CCC1=NS(=O)(=O)c2cc(Cl)cc(Cl)c2N1
2 | 0.92 | O=C(O)CSC1=NS(=O)(=O)c2cc(Br)ccc2N1
3 | 1.8 | O=C(O)CCCC1=NS(=O)(=O)c2cc(Cl)c(Cl)cc2N1
4 | 0.93 | O=C(O)CCC1=NS(=O)(=O)c2cc(Br)ccc2N1
5 | 0.83 | O=C(O)CCCC1=NS(=O)(=O)c2cc(Cl)ccc2N1
6 | 0.18 | COc1ccc2c(c1)NC(CCC(=O)O)=NS2(=O)=O
7 | 0.69 | O=C(O)CCC1=NS(=O)(=O)c2cc(Cl)ccc2N1
8 | 2.04 | O=C(O)CCSC1=NS(=O)(=O)c2cc(Br)cc(Br)c2N1
9 | 1.5 | O=C(O)CCC1=NS(=O)(=O)c2cc(Cl)c(Cl)cc2N1
10 | 0.83 | O=C(O)CCCC1=NS(=O)(=O)c2ccc(Cl)cc2N1
11 | 1.77 | O=C(O)CCSC1=NS(=O)(=O)c2cc(Br)ccc2N1
12 | 0.16 | Cc1ccc2c(c1)NC(CCC(=O)O)=NS2(=O)=O
13 | 0.66 | O=C(O)CCSC1=NS(=O)(=O)c2ccccc2N1
14 | 1.79 | O=C(O)CCSC1=NS(=O)(=O)c2cc(Cl)cc(Cl)c2N1
15 | 1.1 | O=C(O)CSC1=NS(=O)(=O)c2ccc(Cl)c(Cl)c2N1
16 | 0.96 | COc1ccc2c(c1)NC(SCCC(=O)O)=NS2(=O)=O
17 | 1.16 | Cc1ccc2c(c1)NC(SCCC(=O)O)=NS2(=O)=O
18 | 1.09 | O=C(O)CSC1=NS(=O)(=O)c2cc(Cl)cc(Cl)c2N1
19 | 1.35 | O=C(O)CCC1=NS(=O)(=O)c2cc(Br)cc(Br)c2N1
20 | 1.6 | O=C(O)CCSC1=NS(=O)(=O)c2ccc(Cl)cc2N1

Row | logP | Compound
21 | 0.12 | COc1ccc2c(c1)NC(CCCC(=O)O)=NS2(=O)=O
22 | 1.3 | O=C(O)CCC1=NS(=O)(=O)c2ccc(C(F)(F)F)cc2N1
23 | -0.18 | O=C(O)CCC1=NS(=O)(=O)c2ccccc2N1
24 | 1.22 | O=C(O)CCCC1=NS(=O)(=O)c2cc(Cl)cc(Cl)c2N1
25 | 1.81 | O=C(O)CCSC1=NS(=O)(=O)c2cc(Cl)c(Cl)cc2N1
26 | 0.37 | COc1ccc2c(c1)NC(SCC(=O)O)=NS2(=O)=O
27 | 1.02 | O=C(O)CCCC1=NS(=O)(=O)c2cc(Br)ccc2N1
28 | 0.72 | O=C(O)CCC1=NS(=O)(=O)c2ccc(Cl)cc2N1
29 | 0.33 | Cc1ccc2c(c1)NC(CCCC(=O)O)=NS2(=O)=O
30 | 1.24 | O=C(O)CCCC1=NS(=O)(=O)c2ccc(C(F)(F)F)cc2N1
31 | 1.16 | O=C(O)CSC1=NS(=O)(=O)c2cc(Br)cc(Br)c2N1
32 | 0.18 | O=C(O)CSC1=NS(=O)(=O)c2ccccc2N1
33 | 0.72 | O=C(O)CSC1=NS(=O)(=O)c2cc(Cl)ccc2N1
34 | 1.62 | O=C(O)CSC1=NS(=O)(=O)c2ccc(C(F)(F)F)cc2N1
35 | 1.51 | O=C(O)CCCC1=NS(=O)(=O)c2cc(Br)cc(Br)c2N1
36 | 1.43 | O=C(O)CCSC1=NS(=O)(=O)c2cc(Cl)ccc2N1
37 | 0.7 | Cc1ccc2c(c1)NC(SCC(=O)O)=NS2(=O)=O
38 | 0.82 | O=C(O)CSC1=NS(=O)(=O)c2ccc(Cl)cc2N1
39 | 1.96 | O=C(O)CCSC1=NS(=O)(=O)c2ccc(C(F)(F)F)cc2N1
